Experiment [1] deals with Serine/threonine-protein kinase PAK 6 (Homo sapiens) (UniProt Q9NQU5). Description: Selectivity interaction (KinomeScan (DiscoverX)) EUB0000595a PAK6. As to conditions: at 10 µM.
In experiment [2] the target is Casein kinase II subunit alpha' (Homo sapiens) (UniProt P19784). Put plainly: Selectivity interaction (KinomeScan (DiscoverX)) EUB0001619a CSNK2A2. The following applies: at 1 µM.
In experiment [3] the target is T1, Tyrosine-protein kinase TXK (Homo sapiens) (UniProt P42681).
T1 sequence (whole entry): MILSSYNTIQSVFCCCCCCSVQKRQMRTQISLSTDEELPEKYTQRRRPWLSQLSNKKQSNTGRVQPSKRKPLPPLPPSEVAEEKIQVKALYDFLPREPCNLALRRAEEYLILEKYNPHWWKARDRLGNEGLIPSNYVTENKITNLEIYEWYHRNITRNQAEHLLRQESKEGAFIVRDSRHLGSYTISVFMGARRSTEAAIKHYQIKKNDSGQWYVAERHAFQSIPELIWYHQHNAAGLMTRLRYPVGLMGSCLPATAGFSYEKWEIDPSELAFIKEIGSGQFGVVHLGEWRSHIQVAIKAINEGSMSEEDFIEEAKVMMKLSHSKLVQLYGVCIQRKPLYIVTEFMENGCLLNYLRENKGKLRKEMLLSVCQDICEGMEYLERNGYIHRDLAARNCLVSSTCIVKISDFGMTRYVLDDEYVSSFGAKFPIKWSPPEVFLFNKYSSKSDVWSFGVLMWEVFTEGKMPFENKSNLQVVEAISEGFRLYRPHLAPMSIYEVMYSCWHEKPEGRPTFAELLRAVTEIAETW
Put plainly: Selectivity interaction (KinomeScan (DiscoverX)) EUB0001619a TXK. The following applies: at 1 µM.

Experiment [4] addresses Ribosomal protein S6 kinase alpha-1 (Homo sapiens, UniProt Q15418). Put plainly: Selectivity interaction (KinomeScan (DiscoverX)) EUB0000607a RPS6KA1. The following applies: at 10 µM.
Experiment [5] has as its target Mitogen-activated protein kinase 3 (Homo sapiens, UniProt P27361). Put plainly: Selectivity interaction (KinomeScan (DiscoverX)) EUB0000607a MAPK3. The following applies: at 10 µM.
The target in experiment [6] is T2, Dual specificity mitogen-activated protein kinase kinase 4 (Homo sapiens) (UniProt P45985).
T2 sequence (whole entry): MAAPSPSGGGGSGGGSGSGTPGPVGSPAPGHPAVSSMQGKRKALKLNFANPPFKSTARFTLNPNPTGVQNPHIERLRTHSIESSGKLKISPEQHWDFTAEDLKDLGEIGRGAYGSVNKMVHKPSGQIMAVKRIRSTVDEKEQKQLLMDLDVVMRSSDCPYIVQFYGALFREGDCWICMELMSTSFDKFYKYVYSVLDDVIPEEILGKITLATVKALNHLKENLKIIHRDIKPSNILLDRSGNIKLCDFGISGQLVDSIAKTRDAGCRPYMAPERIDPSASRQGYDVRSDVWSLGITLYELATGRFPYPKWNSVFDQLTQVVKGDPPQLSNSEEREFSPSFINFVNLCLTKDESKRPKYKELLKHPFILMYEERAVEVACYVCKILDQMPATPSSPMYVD
Description: Selectivity interaction (ActivX KiNativ screen (kinase selectivity in THP-1 cell lysates)) EUB0000639a MAP2K4. As to conditions: lysate. It counts as subcellular.

Experiment [7] deals with Ribosomal protein S6 kinase beta-1 (Homo sapiens, UniProt P23443). Description: Selectivity interaction (ActivX KiNativ screen (kinase selectivity in THP-1 cell lysates)) EUB0000639a RPS6KB1. The following applies: lysate. It counts as subcellular.
In experiment [8] the target is T3, Aurora kinase A (Homo sapiens) (UniProt O14965).
T3 sequence (whole entry): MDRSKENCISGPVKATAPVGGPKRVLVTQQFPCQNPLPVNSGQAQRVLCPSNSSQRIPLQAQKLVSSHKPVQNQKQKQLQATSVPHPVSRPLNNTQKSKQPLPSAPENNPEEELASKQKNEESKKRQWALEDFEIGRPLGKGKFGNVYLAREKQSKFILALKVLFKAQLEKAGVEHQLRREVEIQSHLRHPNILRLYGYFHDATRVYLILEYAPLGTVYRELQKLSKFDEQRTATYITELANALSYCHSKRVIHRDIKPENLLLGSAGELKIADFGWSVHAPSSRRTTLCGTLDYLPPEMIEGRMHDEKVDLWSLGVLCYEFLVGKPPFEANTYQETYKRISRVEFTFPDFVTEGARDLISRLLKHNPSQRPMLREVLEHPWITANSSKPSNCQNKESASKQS
Description: Selectivity interaction (ActivX KiNativ screen (kinase selectivity in THP-1 cell lysates)) EUB0000639a STK6. It is filed as subcellular. The following applies: lysate, at 5 µM.

For experiment [9], the target named is Calcium/calmodulin-dependent protein kinase type 1G (Homo sapiens) (UniProt Q96NX5). Put plainly: Selectivity interaction (KinomeScan (DiscoverX)) EUB0000045b CAMK1G.
In experiment [10] the target is T4, Rhodopsin kinase GRK7 (Homo sapiens) (UniProt Q8WTQ7).
T4 sequence (whole entry): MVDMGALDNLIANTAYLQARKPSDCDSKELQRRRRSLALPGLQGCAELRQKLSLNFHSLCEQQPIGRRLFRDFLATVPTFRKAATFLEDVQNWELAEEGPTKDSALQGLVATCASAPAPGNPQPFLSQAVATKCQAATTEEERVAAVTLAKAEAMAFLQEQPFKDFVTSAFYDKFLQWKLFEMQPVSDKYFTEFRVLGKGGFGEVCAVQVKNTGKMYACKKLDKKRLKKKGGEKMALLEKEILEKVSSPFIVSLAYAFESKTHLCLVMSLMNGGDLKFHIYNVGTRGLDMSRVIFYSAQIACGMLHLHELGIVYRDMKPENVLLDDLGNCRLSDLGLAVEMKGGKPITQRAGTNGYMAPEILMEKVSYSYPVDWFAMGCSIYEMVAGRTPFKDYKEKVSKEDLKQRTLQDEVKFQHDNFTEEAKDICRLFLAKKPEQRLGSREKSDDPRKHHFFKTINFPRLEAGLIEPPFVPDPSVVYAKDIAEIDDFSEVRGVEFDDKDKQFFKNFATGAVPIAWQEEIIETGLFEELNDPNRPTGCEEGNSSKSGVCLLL
Put plainly: Selectivity interaction (ProQinase) EUB0000171b GRK7.

Experiment [11] addresses Insulin-like growth factor 1 receptor (Homo sapiens, UniProt P08069). Description: Selectivity interaction (Kinase panel (33PanQinase(R) Activity Assay)) EUB0000877a IGF1R.
For experiment [12], the target named is Glycogen synthase kinase-3 alpha (Homo sapiens, UniProt P49840). Description: Selectivity interaction (KinomeScan (DiscoverX)) EUB0000092b GSK3A. As to conditions: at 10 µM.
Experiment [13] concerns the target Mitogen-activated protein kinase 8 (Homo sapiens, UniProt P45983). Description: Selectivity interaction (Millipore kinase profiler) EUB0000124b MAPK8. The following applies: at 10 µM.
Experiment [14] deals with Serine/threonine-protein kinase NIM1 (Homo sapiens, UniProt Q8IY84). Description: Selectivity interaction (KinomeScan (DiscoverX)) EUB0000229b NIM1K. The following applies: at 10 µM.

Each structure is given as a SMILES string.

Ribosomal protein S6 kinase beta-1, sequence (P23443 whole entry, looked up): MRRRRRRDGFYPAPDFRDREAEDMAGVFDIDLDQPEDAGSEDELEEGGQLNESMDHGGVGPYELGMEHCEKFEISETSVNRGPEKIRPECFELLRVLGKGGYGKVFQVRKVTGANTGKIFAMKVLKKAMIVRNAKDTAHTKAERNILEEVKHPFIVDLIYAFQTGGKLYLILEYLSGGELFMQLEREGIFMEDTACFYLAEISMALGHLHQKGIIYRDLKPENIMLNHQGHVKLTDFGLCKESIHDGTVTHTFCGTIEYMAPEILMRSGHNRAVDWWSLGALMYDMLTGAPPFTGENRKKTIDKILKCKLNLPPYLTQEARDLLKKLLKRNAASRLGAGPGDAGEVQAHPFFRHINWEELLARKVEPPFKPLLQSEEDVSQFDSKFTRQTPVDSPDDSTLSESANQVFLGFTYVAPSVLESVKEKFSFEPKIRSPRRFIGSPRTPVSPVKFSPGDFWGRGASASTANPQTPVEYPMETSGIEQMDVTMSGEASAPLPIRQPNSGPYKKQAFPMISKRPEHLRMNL
Calcium/calmodulin-dependent protein kinase type 1G (Homo sapiens), sequence (Q96NX5 whole entry): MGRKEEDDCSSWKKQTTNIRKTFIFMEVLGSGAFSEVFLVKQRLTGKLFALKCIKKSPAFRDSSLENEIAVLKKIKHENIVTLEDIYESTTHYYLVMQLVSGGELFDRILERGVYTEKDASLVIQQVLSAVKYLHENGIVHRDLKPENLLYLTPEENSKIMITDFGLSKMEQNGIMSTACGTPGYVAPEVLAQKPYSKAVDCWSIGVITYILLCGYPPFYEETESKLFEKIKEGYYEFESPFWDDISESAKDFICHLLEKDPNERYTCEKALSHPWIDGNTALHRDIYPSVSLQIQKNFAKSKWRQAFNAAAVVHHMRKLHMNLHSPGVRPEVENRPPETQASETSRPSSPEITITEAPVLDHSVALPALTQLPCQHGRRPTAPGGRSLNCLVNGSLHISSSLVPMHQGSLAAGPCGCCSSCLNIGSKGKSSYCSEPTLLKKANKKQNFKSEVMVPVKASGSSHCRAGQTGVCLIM
Ribosomal protein S6 kinase alpha-1, sequence (Q15418 whole entry): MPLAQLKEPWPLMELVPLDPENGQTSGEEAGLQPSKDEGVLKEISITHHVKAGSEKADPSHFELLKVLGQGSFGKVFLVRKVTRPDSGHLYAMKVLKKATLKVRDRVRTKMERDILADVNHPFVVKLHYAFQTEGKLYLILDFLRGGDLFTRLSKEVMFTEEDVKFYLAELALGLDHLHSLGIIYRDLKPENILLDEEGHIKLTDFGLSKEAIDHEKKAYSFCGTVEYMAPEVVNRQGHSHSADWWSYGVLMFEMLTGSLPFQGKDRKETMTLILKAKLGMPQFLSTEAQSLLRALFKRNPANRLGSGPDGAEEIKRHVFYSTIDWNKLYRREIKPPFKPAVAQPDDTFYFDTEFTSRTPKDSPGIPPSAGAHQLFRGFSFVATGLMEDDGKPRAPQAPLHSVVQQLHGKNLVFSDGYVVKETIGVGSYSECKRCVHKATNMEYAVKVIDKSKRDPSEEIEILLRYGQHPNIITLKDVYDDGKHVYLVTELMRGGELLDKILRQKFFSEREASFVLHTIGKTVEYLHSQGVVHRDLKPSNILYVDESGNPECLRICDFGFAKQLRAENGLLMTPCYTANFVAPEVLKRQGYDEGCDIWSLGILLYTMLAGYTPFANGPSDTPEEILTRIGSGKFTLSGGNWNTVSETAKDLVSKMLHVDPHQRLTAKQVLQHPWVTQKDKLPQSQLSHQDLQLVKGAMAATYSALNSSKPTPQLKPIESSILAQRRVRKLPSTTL
Serine/threonine-protein kinase NIM1, sequence (Q8IY84 whole entry): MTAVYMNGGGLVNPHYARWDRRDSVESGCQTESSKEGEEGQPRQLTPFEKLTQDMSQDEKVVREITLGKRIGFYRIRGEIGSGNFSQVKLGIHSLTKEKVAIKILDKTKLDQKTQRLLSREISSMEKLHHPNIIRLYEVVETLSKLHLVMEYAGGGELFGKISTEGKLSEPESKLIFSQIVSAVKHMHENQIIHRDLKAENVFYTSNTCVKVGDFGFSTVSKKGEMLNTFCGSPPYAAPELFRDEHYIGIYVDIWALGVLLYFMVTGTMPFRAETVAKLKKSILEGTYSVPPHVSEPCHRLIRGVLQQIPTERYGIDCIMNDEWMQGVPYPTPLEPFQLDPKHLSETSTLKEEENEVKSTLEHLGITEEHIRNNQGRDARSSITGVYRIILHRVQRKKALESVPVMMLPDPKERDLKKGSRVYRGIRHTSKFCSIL
Serine/threonine-protein kinase PAK 6 (Homo sapiens), sequence (Q9NQU5 whole entry, looked up): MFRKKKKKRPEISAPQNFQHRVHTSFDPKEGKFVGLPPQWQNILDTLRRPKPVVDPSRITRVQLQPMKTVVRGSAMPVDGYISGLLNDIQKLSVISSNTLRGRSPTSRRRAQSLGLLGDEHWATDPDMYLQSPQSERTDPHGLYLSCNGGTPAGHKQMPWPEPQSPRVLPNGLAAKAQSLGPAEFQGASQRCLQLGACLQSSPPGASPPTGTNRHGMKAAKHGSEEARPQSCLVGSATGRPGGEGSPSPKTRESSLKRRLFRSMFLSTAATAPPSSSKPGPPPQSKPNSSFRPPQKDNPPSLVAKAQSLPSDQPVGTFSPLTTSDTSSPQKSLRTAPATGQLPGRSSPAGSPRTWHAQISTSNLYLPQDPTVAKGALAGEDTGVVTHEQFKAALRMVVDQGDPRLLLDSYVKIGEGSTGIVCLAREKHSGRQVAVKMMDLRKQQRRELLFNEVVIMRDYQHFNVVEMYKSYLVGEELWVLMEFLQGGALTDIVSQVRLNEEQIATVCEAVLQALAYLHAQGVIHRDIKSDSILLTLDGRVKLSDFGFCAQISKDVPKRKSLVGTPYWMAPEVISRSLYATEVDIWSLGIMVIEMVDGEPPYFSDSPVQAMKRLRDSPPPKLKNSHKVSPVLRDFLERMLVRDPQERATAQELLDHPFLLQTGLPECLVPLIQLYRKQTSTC
Mitogen-activated protein kinase 3, sequence (P27361 whole entry): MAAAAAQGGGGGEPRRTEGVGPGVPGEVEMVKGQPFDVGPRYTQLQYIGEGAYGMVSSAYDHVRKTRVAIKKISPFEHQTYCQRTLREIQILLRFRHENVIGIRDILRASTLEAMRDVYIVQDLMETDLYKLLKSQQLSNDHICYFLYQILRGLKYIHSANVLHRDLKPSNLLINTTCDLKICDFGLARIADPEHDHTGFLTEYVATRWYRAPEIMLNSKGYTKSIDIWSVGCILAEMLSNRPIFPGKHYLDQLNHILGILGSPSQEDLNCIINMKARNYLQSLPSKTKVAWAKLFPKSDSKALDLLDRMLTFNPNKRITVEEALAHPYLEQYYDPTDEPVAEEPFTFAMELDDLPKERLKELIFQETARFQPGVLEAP
Casein kinase II subunit alpha' (Homo sapiens), sequence (P19784 whole entry, looked up): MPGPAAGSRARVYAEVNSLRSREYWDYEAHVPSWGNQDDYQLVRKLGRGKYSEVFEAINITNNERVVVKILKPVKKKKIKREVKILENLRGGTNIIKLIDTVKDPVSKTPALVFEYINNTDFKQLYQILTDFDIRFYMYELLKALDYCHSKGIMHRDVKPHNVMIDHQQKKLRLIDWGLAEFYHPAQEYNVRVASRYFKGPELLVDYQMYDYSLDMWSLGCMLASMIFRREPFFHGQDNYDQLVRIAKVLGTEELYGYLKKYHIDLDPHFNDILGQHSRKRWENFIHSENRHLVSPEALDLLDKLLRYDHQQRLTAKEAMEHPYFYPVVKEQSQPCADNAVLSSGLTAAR
Glycogen synthase kinase-3 alpha, sequence (P49840 2-483 limits assumed): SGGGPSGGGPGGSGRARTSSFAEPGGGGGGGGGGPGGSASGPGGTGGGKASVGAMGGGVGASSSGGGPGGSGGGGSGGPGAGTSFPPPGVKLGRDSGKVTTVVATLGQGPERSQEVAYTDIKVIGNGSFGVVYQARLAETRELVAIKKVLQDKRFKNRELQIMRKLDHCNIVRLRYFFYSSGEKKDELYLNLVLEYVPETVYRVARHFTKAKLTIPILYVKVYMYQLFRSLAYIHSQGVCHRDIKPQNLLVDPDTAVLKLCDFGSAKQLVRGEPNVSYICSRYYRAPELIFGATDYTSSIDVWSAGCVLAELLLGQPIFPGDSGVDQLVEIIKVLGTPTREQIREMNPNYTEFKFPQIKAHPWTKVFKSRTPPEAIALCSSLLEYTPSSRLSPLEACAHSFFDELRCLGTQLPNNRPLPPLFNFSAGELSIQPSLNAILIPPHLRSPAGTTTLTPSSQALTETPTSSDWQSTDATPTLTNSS
Mitogen-activated protein kinase 8, sequence (P45983 whole entry): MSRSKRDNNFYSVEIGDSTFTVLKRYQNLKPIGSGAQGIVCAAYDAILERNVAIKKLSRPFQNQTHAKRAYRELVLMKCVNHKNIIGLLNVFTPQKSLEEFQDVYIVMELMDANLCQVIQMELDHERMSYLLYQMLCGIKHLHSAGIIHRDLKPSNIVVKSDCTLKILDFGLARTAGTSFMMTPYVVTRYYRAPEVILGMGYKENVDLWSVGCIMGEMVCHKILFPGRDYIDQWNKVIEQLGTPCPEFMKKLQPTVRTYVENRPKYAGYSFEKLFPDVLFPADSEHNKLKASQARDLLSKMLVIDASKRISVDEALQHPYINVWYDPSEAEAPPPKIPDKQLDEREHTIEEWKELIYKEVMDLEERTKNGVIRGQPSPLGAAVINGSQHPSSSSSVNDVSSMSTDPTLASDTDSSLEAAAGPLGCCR

In experiment [1], `COCC(=O)NC/C=C/c1ccc2ncnc(Nc3ccc(Oc4ccc(C)nc4)c(C)c3)c2c1` [CP-724714] gave a % of control of 89%.
Turning to `N#Cc1cccc(-c2c[nH]c3ncnc(N4CCOCC4)c23)c1`, the % of control is 45% in experiment [2] and 100% in experiment [3].
Take `CNC(=O)Nc1ccc(-c2nc(N3CC4CCC(C3)O4)c3cnn(C4CCC5(CC4)OCCO5)c3n2)cc1`: the % of control in [4] came out at 91%; in [5], 97%.
As for `CC[C@@H]1[C@H](F)C(=O)N[C@@H]1COc1nccc2cc(C(N)=O)c(OC)cc12` [ZIMLOVISERTIB], the % of inhibition in experiment [6] (at 0.01 µM) is -9.4%; in experiment [6] (at 0.04 µM), -17.8%; in experiment [6] (at 0.2 µM), 0.7%; in [6] (at 1 µM), 17.6%; in [6] (at 5 µM) it was 56.2%; in [7] (at 0.01 µM), 17.1%. In addition, the % of inhibition was -0.8% in experiment [7] (at 0.04 µM); -21.6% in experiment [7] (at 0.2 µM); -2.2% in experiment [7] (at 1 µM); -3% in experiment [7] (at 5 µM); 64.4% in experiment [8].
In the case of `C=CC(=O)Nc1cc(-n2c(=O)ccc3cnc4ccc(-c5ccc(NS(C)(=O)=O)cc5)cc4c32)ccc1C`, the % of control came to 100% in [9] (at 1 µM) and 68% in experiment [9] (at 10 µM).
For `C=CC(=O)Nc1cccc(C(=O)Nc2ccc(Nc3cc(-c4[nH]c(SC)nc4C)ccn3)cc2)c1`, the % of control in experiment [10] (at 1 µM) is 100%; in experiment [10] (at 5 µM) it was 99%.
For orientation: IC50 means the midpoint of a concentration-inhibition curve. Read a low IC50 as higher potency. The compound `CCC(=O)N1CC[C@H](Nc2ncnc3c2CN(c2cnc(OC)c(C(F)(F)F)c2)CC3)C1` [LENIOLISIB] yielded an IC50 in experiment [11] of over 10 µM.
In experiment [12], `CCC(=O)N1CCN(c2ccc(-n3c(=O)ccc4cnc5ccc(-c6cnc7ccccc7c6)cc5c43)cc2C(F)(F)F)CC1` came in with a % of control of 93%.
Take `CC(=O)Nc1cccc(-n2c(=O)n(C3CC3)c(=O)c3c(Nc4ccc(I)cc4F)n(C)c(=O)c(C)c32)c1`: in experiment [13], the % of control turned out to be 104%.
Turning to `COc1cc(N(C)c2ccnc3ccc(C(F)(F)F)cc23)cc(OC)c1OC`, the % binding in experiment [14] was 100%.

(Values after ChEMBL document CHEMBL5465560, “Selectivity Literature for EUbOPEN Chemogenomic Library” (2024).)
